Reference: patent US5639881A, “Synthesis and elucidation of pyrimido (4,5-Q) quinazoline derivatives” (priority 1991, dated 1997)
Where two headings read alike, the source gives them in different places.

How the values were obtained:
physchem = assay type: physicochemical
Description: (§1) The mechanism of 38 and 39 formation from 28 is discussed in conjunction with Scheme VI. The pH-rate data in FIG. 1 indicate that rate-determining chloride elimination occurs from the neutral, monoanion, dianion, and trianion forms of 28. Plateaus corresponding to the first three eliminations are indicated on FIG. 1. The increasing rates above pH 11 may pertain to equilibrium trianion formation and rate-determining elimination of chloride from the trianion. Consideration of rate-determining chloride elimination from the various forms of 28 provides the rate law shown in equation 1 [formula] where the rate and equilibrium constants are those shown in Scheme VI. The numerical values for these constants (shown in Scheme VI) were obtained by computer-fitting the data in FIG. 1 to equation 1. The solid line in FIG. 1 was then generated from equation 1 substituted with these constants. The independently determined pKa for monoanion formation (8.26±0.15) is in agreement with the kinetic pKa value (8.3). Thus, the kinetically-determined pKa values in Scheme VI represent actual acid dissociations rather than mixtures of constants. [drawing 5]
(§2) In aerobic aqueous buffer, both 43 and 44 are converted to the corresponding quinones {Scheme IX) by first-order processes. […] The solid curve of Plot A was generated from the rate law, kobsd =k1 +k2 Ka1 /(aH +Ka1), where k1 is the rate of oxidation of the neutral species (1×10^-3 sec^-1), k2 is the rate of oxidation of the hydroquinone monoanion (0.046 sec^-1), pKa1 is the acid dissociation constant (7.78), and aH is the proton activity determined with a pH meter. The acid dissociation constant obtained from the pH-rate data is nearly the same as the value determined previously, 8.26±0.15.1

colon and breast cancers = conditions: for IC50: Homo sapiens; for antitumor activity: colon and breast cancers
[1] = quinone methide trapping with added 2-mercaptoethanol; assay type: physicochemical; conditions: 10 to 100X excess of mercaptoethanol
Description: Chloride elimination from the neutral and anionic forms of 28 affords an equilibrating mixture of protonated (36), neutral (37), and anionic (37^-) quinone methides. Proton trapping by 37^-, in competition with water trapping of 36 and 37, then affords a mixture of 38 and 39. Evidence of steady-state intermediates capable of trapping nucleophiles (36 and 37) was obtained by adding 10 to 100X excess of Z-mercaptoethanol over 28. […] The presence mercaptoethanol results in formation of a hydroquinone (nucleophile-trapped) product 40 and no quinone 39, however. Thus, quinone methide formation must occur in a rate determining step, followed by its relatively rapid trapping by the mercaptide nuceophile. The mercaptoethanol trapping studies of benzimidazole (See: Skibo, E. B., J. Org. Chem. 1986, 51, 522) and quinazoline (See: Lemus et al., op. cit.) based quinone methides likewise provided evidence of a steady-state species.

[2] = assay type: physicochemical
Description: The hydrolysis of 28 was followed spectrophotometrically at 430 nm in anaerobic aqueous buffer over a pH range of 6 to 12 with [28]=5×10^-5 M. Absorbance vs. time plots for hydrolysis are first order in character, with the first-order rate constants (kobsd)independent of buffer concentration but dependent on pH as shown in FIG. 1. The use of known hydroquinone and quinone extinction coefficients at 430 nm permitted the calculation of product yields: 69±1% 38 and 31±1% 39 regardless of the pH (product structures shown in Scheme VI). The accuracy of the yield determinations was enhanced by the intense hydroquinone visible spectrum and the absence of visible absorbances for the quinone derivative. Product isolation studies confirmed the presence of 39.
as §1
The hydrolysis of 35 in anaerobic buffer proceeds by a first-order process to afford 42 as the sole product. […] The pH-rate profile, obtained over the pH range of 5 to 8, is a straight line of slope +1. […] Computer fitting the pH-rate data to kobsd =k1 Ka1 /aH, and substituting pKa1 =10.3, provides and elimination rate constant of k1 =24 sec^-1.
(§3) Kinetic Studies of Hydrolysis and Oxidation. The hydrolytic studies of 28 and 35 were carried out in anaerobic aqueous buffer, and the reoxidation studies of 43 and 44 were carried out in aerobic aqueous buffer at 30.0°±0.2° C. The anaerobic experiments were carried out with Thunberg cuvettes as previously described. A dimethyl sulfoxide stock of the compound to be studied was prepared fresh, and 50 μL of this stock was added to 2.95 mL of buffer. The absorbance vs time data were obtained on a PERKIN-ELMER 559 or a Lambda-3 UV-vis spectrophotometer and fit to a first-order rate law.

[3] = assay type: physicochemical; remark: listed apart in the source
Procedure: Oxygen Reactivity. In order to assess the capability of the title systems to generate reactive oxygen species by quinone/hydroquinone cycling, the rate laws were determined for oxygen oxidation of 43 and 44, Scheme IX. These respective hydroquinones are analogues of 28 and 35 without leaving groups present. As expected, the internal hydrogen bonds of 43 slow oxidation at high pH while the absence of hydrogen bonds in 44 result in stopped flow oxidations under these conditions. However, the crossing of the pH-rate profiles near neutrality (FIG. 3) results in similar rates of oxidation for both systems at physiological pH.
as §2, §3

[4] = value determined previously; cited from earlier work
[5] = lipophilicity (statement)
[6] = reduced capability to cycle between reduced and oxidized forms; cited from earlier work
[7] = read-out: IC50 values as low as
[8] = regardless of pH (pH 6 to 12), 5×10^-5 M, 430 nm
[9] = aerobic aqueous buffer, 30.0 °C

COc1c2nc(CCl)n(C)c(=O)c2c(OC)c2nc(CCl)n(C)c(=O)c12 [compound 16, 2,7-Bis(chloromethyl)-5,10-dimethoxy-3,8-dimethylpyrimido [4,5-g]quinazoline-4,9(3H,8H)-dione]
ionization at physiological pH (physchem): will not ionize at physiological pH
IC50 (colon and breast cancers; [7]): ≥ 20 nM

Cc1nc2c(O)c3c(=O)[nH]c(CCl)nc3c(O)c2c(=O)[nH]1 [compound 28, 2-(Chloromethyl)-5,10-dihydroxy-7-methylpryimido[4,5-g]quinazoline-4,9(3H,8H)-dione]
pKa (physchem; aqueous buffer, from computer-fit of pH-rate profile of hydrolysis, read-out: kinetic pKa value): 8.3
observed rate constants in presence of 2-mercaptoethanol vs hydrolysis without it [1]: essentially the same
yield of hydrolysis product 38 [2, 8]: 69±1%
yield of hydrolysis product 39 [2, 8]: 31±1%

Cc1nc2c(O)c3c(=O)n(C)c(CCl)nc3c(O)c2c(=O)n1C [compound 35, 2-(Chloromethyl)-5,10-dihydroxy-3,7,8-trimethylpyrimido[4,5-g]quinazoline-4,9(3H,8H)-dione]
stability in protic solvent ([2]; any protic solvent): rapidly eliminates HCl
k1, rate constant for elimination of chloride from the monoanion ([2]; monoanion, anaerobic aqueous buffer, 30.0 °C): 24 s⁻¹
rates of hydrolysis ([2]; much above pH 8): stopped-flow rates

Cc1nc2c(O)c3c(=O)[nH]c(C)nc3c(O)c2c(=O)[nH]1 [compound 43]
stability toward oxygen relative to reduced anthracyclines [3]: more stable toward oxygen than reduced anthracyclines
rate of oxidation of the hydroquinone monoanion [3, 9]: 0.046 s⁻¹
fold slower oxidation of 43^- than 44^- ([3]; monoanions): 128 fold
k1, rate of oxidation of the neutral species ([3]; neutral hydroquinone, aerobic aqueous buffer, 30.0 °C): 0.001 s⁻¹
rate of oxidation at physiological pH [3]: 1.7×10^-2 sec^-1
acid dissociation constant (pKa) determined previously [4]: 8.26±0.15
pKa (physchem; aerobic aqueous buffer, from pH-rate profile of oxidation, read-out: pKa1 (hydroquinone acid dissociation constant from pH-rate data)): 7.78

Cc1nc2c(O)c3c(=O)n(C)c(C)nc3c(O)c2c(=O)n1C [compound 44]
stability toward oxygen relative to reduced anthracyclines [3]: more stable toward oxygen than reduced anthracyclines
rates of oxidation ([3]; at or above pH 9): stopped flow rates
rate of oxidation of the hydroquinone monoanion [3, 9]: 5.8 s⁻¹
rate of oxidation at physiological pH [3]: 9×10^-3 sec^-1

COc1c2nc(CBr)n(C)c(=O)c2c(OC)c2nc(CBr)n(C)c(=O)c12 [compound 17, 2,7-Bis (bromomethyl)-5,10-dimethoxy-3,8-dimethylpyrimido[4,5-g]quinazoline-4,9(3H,8H)-dione]
ionization at physiological pH (physchem): will not ionize at physiological pH
IC50 (colon and breast cancers; [7]): ≥ 20 nM
lipophilicity [5]: lipophilic

O=C1c2nc(CBr)[nH]c(=O)c2C(=O)c2nc(CBr)[nH]c(=O)c21 [compound 19, 2,7-Bis(bromomethyl)pyrimido[4,5-g]quinazoline-4,5,9,10(3H,8H)-tetrone]
pKa (physchem; anion formation near neutrality, read-out: pKa (conversion to an anion)): 6.5
IC50 (colon and breast cancers): > 1000 nM
antitumor activity (colon and breast cancers): poor activity

COc1cccc2c1C(=N)c1c(O)c3c(c(O)c1C2=O)C[C@@](O)(C(C)=O)C[C@@H]3O[C@H]1C[C@H](N)[C@H](O)[C@H](C)O1 [5-iminodaunorubicin]
cardiotoxicity [6]: does reduce cardiotoxicity

Cn1c(CCl)nc2c(c1=O)C(=O)c1nc(CCl)n(C)c(=O)c1C2=O [compound 22, 2,7-Bis(chloromethyl)-3,8-dimethylpyrimido[4,5-g]quinazoline-4,5,9,10(3H8H)-tetrone]
antitumor activity (colon and breast cancers): inactive
